The values below come from US7705016B2, “Regulation of food intake by modulation of long-chain fatty acyl-CoA levels in the hypothalamus” (Albert Einstein College of Medicine of Yeshiva University, priority 2003, dated 2010).

One series has as its target T1, CPT1 (Rattus norvegicus, UniProt P32198).
T1 construct: CPT1 activity was measured in the particulate fraction of protein extracts from animals treated with ICV control injections; from tissue; host or cells: hypothalamus (arcuate nucleus) of male Sprague-Dawley rats, in vivo or ex vivo
T1 sequence (P32198 2-773): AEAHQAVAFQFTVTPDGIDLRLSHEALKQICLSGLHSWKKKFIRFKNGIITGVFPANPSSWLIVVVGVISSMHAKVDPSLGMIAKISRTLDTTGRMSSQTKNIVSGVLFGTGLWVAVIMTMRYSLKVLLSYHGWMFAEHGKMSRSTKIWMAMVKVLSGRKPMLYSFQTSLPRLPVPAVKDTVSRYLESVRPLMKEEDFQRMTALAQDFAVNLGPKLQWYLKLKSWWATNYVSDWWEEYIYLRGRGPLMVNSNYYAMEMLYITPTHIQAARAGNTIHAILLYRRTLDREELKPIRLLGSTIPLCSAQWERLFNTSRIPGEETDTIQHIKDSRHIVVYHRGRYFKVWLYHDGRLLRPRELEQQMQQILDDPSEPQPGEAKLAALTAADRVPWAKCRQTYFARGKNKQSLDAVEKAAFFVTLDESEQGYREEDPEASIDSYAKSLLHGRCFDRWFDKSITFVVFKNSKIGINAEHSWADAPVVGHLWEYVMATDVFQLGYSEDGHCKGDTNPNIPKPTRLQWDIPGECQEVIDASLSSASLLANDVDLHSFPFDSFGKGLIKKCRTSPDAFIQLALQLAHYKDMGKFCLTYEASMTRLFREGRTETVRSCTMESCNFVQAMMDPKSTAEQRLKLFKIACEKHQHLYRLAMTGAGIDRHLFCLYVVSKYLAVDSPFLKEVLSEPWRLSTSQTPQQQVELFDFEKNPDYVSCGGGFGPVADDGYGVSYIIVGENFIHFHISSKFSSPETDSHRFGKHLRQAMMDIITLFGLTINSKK
Briefly: CPT1 activity in arcuate nuclei and whole hypothalamus after ICV injection. It counts as in vivo. The settings on record: after ICV administration. How it is done: (§1) Surgical implantation of ICV cannulae was performed on day 1 (˜3 weeks prior to the in vivo study). Full recovery of body weight and food intake was achieved by day 7. Rats randomized for ribozyme treatment received an ICV injection of CPT1L-Ribo, CPT inhibitors or controls on day 17. The experimental group treated with TDGA received ICV injection of the inhibitor on day 21, 6 hr prior to the harvesting of brains. Panels B. and C. show quantitation of CPT1L (B) and CPT1M (C) mRNA by real-time PCR. RNA was purified from individual hypothalamic nuclei (PVN, LHA, and arcuate), which were obtained by micro punch technique 3 days after ICV injection of pTarget control (▪; N=4) or CPT1LRibo (□; N=5). Copy number of CPT1 mRNA is normalized to β-Actin copy number ×10^6. […] CPT1 activity was measured in the particulate fraction of protein extracts from animals treated with ICV control injections (▪; N=6, receiving aCSF+2% DMSO or Control Ribo), TDGA ( ?; N=6), or CPTL-Ribo (□; N=5). […] Levels of stearoyl-CoA (F) and oleyl-CoA (E) respectively were measured by HPLC in arcuate of rats injected ICV with control compound (▪; ST1340) or ST1326 (□).
(§2) ICV catheters were implanted in male Sprague-Dawley rats by stereotaxic surgery (Obici et al., 2002a; Obici et al., 2001; Liu et al., 1998). […] Thus, we next measured CPT1 activity in ARC and in whole hypothalamus. […]

A further series has as its system CPT1L mRNA. Briefly: CPT1L mRNA in hypothalamic nuclei micro punches by real-time PCR after ICV injection. Format: in vivo, rat. The following applies: 3 days after ICV injection; adjusted for β-actin. How it is done:
as §1, with “N=5).” for “N=5). Copy number of CPT1 mRNA is normalized to β-Actin copy number ×10^6.”
as §2
Quantitation of CPT1 and neuropeptides mRNA by Northern and real-time PCR. […]
In general terms: Quantitative PCR measures a nucleic acid by following its amplification.

As for “CPT1L-Ribo: plasmid (pTarget, CMV promoter) expressing a hammerhead ribozyme that specifically cleaves rat CPT1L mRNA, complexed to PEI for ICV injection (DNA CUGUACCAAAGAGCUGUAGAGUCCGUGAGGACGAAACGCCGCUCACAAUG)”, the “CPT1 activity in ARC” value with CPT1 is “marked decrease”. Moreover, in the series with CPT1L mRNA, the “CPT1L mRNA in the arcuate nuclei (ARC)” value is reported as “marked decrease”.
